Measured values taken from article PMC6267684, “Pharmacokinetic evaluation of the PNC disassembler metarrestin in wild-type and Pdx1-Cre;LSL-Kras^G12D/+;Tp53^R172H/+ (KPC) mice, a genetically engineered model of pancreatic cancer” (Cancer Chemotherapy and Pharmacology, 2018).

Test system: FOXO6 mRNA
Assay: FOXO6 mRNA expression in KPC tumors (RNA-seq, qRT-PCR)
Type: in vivo, KPC mice
Settings: vs intratumor exposure
Experimental: Pancreas cancer tissues samples or adjacent, uninvolved normal pancreas from vehicle or metarrestin-treated KPC animals collected at 0, 3, and 9 h after last dose of 25 mg/kg metarrestin were homogenized in PureLink Lysis Buffer (PureLink RNA Mini Kit, ThermoFisher Scientific Waltham, MA) at 4 °C using a TissueLyser II bead mill (Qiagen, Valencia, CA, manufactured by Retsch, Newtown, PA). Total RNA was isolated using the Life Technologies PureLink® RNA Mini Kit, quantified on a NanoDrop 1000 spectrophotometer (ThermoFisher Scientific, Waltham, MA). […]
Total RNA libraries were prepared using the Illumina TruSeq® Stranded Total RNA LT (with Ribo-Zero™Human/Mouse/Rat) kit according the manufacturer’s instructions. […] Sequencing output ranged from 89 to 132 million reads per sample. Adapter trimming and base filtering was done using Trimmomatic software version 0.3, and the trimmed reads were aligned to mouse reference genome (GRCm38/mm10) and Ensembl annotation (version 70) using TopHat2 version 2.0.8.
A total of 450 ng of total RNA was used for single-strand complementary DNA synthesis using a SuperScript III First-Strand kit (Invitrogen, Carlsbad, CA). […] Reaction products were read in a Bio-Rad CFX96 Touch real-time PCR detection system (Bio-Rad Laboratories, Hercules, CA). […]

Structure (SMILES): N=c1c2c(-c3ccccc3)c(-c3ccccc3)n(Cc3ccccc3)c2ncn1[C@H]1CC[C@H](O)CC1 [metarrestin, Trans-4-(7-benzyl-4-imino-5,6-diphenyl-4,7-dihydro-3H-pyrrolo[2,3-d]pyrimidin-3-yl) cyclohexanol]
- FOXO6 mRNA expression in KPC tumors: Dose-dependent normalization
